Laboratory results taken from patent US11091476B2, “Protein kinase inhibitors, preparation method and medical use thereof” (Gan & Lee Pharmaceuticals, priority 2015, dated 2021).

Experiments:
CDK1/CyclinA2 = CDK1/CyclinA2 (Homo sapiens (Human), UniProt P06493); assay: CDK kinase inhibitory activity, ADP-Glo Kinase Assay, CDK1/CyclinA2; format: biochemical
[1] = tested on: U87-luc orthotopic brain xenograft; assay: Pharmacodynamic study in U87-luc orthotopic brain xenograft model, median survival; format: in vivo, BALB/c nude mice; details: for Medium survival: survival time range in brackets
Text: Pharmacodynamic study of the compound 17 of this disclosure and the combination of compound 17 of the disclosure and temozolomide in a U87-luc orthotopic brain xenograft model
Adult female BALB/c nude mice were used as test animals. A U87-luc orthotopic brain xenograft model was used to study the effect of representative compound 17 of this disclosure on the median survival of female BALB/c nude mice after intragastric administration.
Healthy adult female BALB/c nude mice, 8 mice/group, 6-8 weeks old, weighing 18-22 g, purchased from Shanghai SIPPR-BK Laboratory Animal Co., Ltd., Animal Production License No: 2008001658261; 2008001658263. • 7.2.3 Preparation of the test compounds
An appropriate amount of compound 17 was weighed, and added with 0.1% hydroxyethyl cellulose/0.5% TWEEN®80 as vehicle to 0.3125 mg/ml;
An appropriate amount of Temozolomide sample was weighed, and added with 0.1% CMC-Na+0.25% TWEEN®80 as vehicle to 0.3 mg/ml.
Adult female BALB/c nude mice were anesthetized by intraperitoneal injection of sodium pentobarbital at a dose of 80 mg/kg. To relieve pain, animals were injected subcutaneously with buprenorphine at the time points 30 minutes before operation and 6 hours after operation at a dose of 0.1 mg/kg. Animals were observed after anesthesia until all animals had awakened.
The anesthetized animals were properly fixed, the animals' head skin was sterilized with 70% ethanol, and an approximately 10 mm long incision was made on the right side of the midline from the forehead to the ear line. 3×10^5 U87-luc cells (3 μl, mixture of PBS and Matrigel at a ratio of 4:1) were inoculated at the right frontal lobe that is 2 mm away from the right side of the bregma and is 1 mm away from the front side of the coronal suture in each animal. The incision was sutured with a No. 6 suture, and sterilized with polyvinylpyrrolidone. Animals are kept warm until anabiosis. Six days after tumor cell transplantation, tumor animals were grouped by stratified randomization based on […] signal intensity values, and the average bioluminescence reached 2.812E+07 photons/sec when the groups were administered in groups. Different animal groups were administered at different doses for a total of 35 days.

Row | SMILES | IC50 (CDK1/CyclinA2) | Medium survival ([1]; 3.125 mg/kg QD intragastric) | Medium survival ([1]; 6.25 mg/kg QD intragastric) | Medium survival ([1]; 12.5 mg/kg QD intragastric) | Medium survival ([1]; 25 mg/kg QD intragastric) | Medium survival ([1]; 50 mg/kg QD intragastric) | Effect on median survival, in words ([1]; dose-dependent)
1 | CCN1CCC(c2ccc(Nc3ncc(F)c(-c4cc(F)c5c(c4)C4(CCCC4)C(C)=N5)n3)nc2)CC1 [Example 12, N-(5-(1-ethylpiperidin-4-yl)pyridin-2-yl)-5-fluoro-4-(7′-fluoro-2′-methylspiro [cyclopentane-1,3′-indol]-5′-yl)pyrimidine-2-amino] | 1.07 µM | – | – | – | – | – | –
2 | CC1=Nc2c(F)cc(-c3nc(Nc4ccc(C5CCN(C)CC5)cn4)ncc3F)cc2C12CCCC2 [Example 17, 5-Fluoro-4-(7′-fluoro-2′-methylspiro[cyclopentane-1,3′-indol]-5′-yl)-N-(5-(1-methylpiperidin-4-yl)pyridin-2-yl)pyrimidine-2-amino] | 2.71 µM | 38.5(26-59) days | 43.5(31-48) days | 44.5(31-114) days | 61(41-76) days | 78.5(63->114) days | significantly prolong the median survival
